Holding throughout (assay): ≥ marks a high value that may be exact or a test limit, other limits are often not marked, values filed in µg/mL are converted to µM
Experiment [1] has as its system Acinetobacter baumannii ATCC 19606.
Experiment [2] has as its system Enterococcus faecalis ATCC 29212.
Experiment [3] relates to Escherichia coli ATCC 25922.
For experiment [4], the system named is Staphylococcus aureus ATCC 25923.
Experiment [5] has as its system Pseudomonas aeruginosa ATCC 27853.
Experiment [6] relates to Bacillus subtilis ATCC 23857.
Experiment [7] concerns Staphylococcus epidermidis ATCC 12228.
In experiment [8] the test system is Klebsiella pneumoniae ATCC 700603.
Experiment [9] concerns Klebsiella pneumoniae ATCC 13883.
The test system of experiment [10] is Staphylococcus aureus.
The subject of experiment [11] is Klebsiella pneumoniae.
In experiment [12] the test system is Shigella dysenteriae.
In experiment [13] the test system is Salmonella typhimurium.
Experiment [14] deals with Pseudomonas aeruginosa.
For experiment [15], the system named is Proteus mirabilis.
Experiment [16] concerns Bacillus subtilis.
Experiment [17] concerns Micrococcus luteus.
In experiment [18] the test system is Escherichia coli.
Experiment [19] concerns Staphylococcus epidermidis.
The test system of experiment [20] is Bacillus subtilis ATCC 6633.
In experiment [21] the test system is Staphylococcus aureus ATCC 2592.
Experiment [22] relates to Pseudomonas aeruginosa ATCC 9027.
Experiment [23] has as its system Acinetobacter baumannii.

Our source for the MIC values is DBAASP.

The term MIC denotes the lowest concentration found to suppress growth.

In brackets after ≈: the same amount, converted by molar mass.

Turning to `CC(C)C[C@H](NC(=O)CN)C(=O)N[C@@H](CC(C)C)C(=O)N[C@@H](CCCCN)C(=O)N[C@@H](CCCN=C(N)N)C(=O)N[C@@H](CC(C)C)C(=O)N[C@@H](CCCCN)C(=O)N[C@H](C(=O)N[C@@H](CC(C)C)C(=O)N[C@@H](C)C(N)=O)[C@@H](C)O` [GLLKRLKTLA], the MIC was above 512 µM in [1]; above 512 µM in experiment [2]; 256 µM (≈ 285 µg/mL) in [3]; 256 µM (≈ 285 µg/mL) in [4]; 64 µM (≈ 71.1 µg/mL) in [5]; at least 32 µM in experiment [6]. In addition, the MIC came to 64 µM (≈ 71.1 µg/mL) in experiment [7] and 256 µM (≈ 285 µg/mL) in experiment [8].

With `CC[C@H](C)[C@H](N)C(=O)N[C@@H](CC(N)=O)C(=O)N[C@@H](CC(C)C)C(=O)N[C@@H](CCCCN)C(=O)N[C@H](C(=O)N[C@@H](CC(C)C)C(=O)N[C@@H](C)C(=O)N[C@@H](CCCN=C(N)N)C(=O)N[C@@H](CC(C)C)C(=O)N[C@@H](C)C(=O)N[C@@H](CCCCN)C(=O)N[C@@H](CCCCN)C(=O)N[C@H](C(=O)N[C@@H](CC(C)C)C(N)=O)[C@@H](C)CC)[C@@H](C)CC` [INLKILARLAKKIL], the MIC in experiment [4] worked out at 6.25 µM (≈ 10 µg/mL); in [9] it was 3 µM (≈ 4.82 µg/mL); in [10], 3 µM (≈ 4.82 µg/mL); in experiment [11], 3 µM (≈ 4.82 µg/mL).

Consider `CC(C)C[C@H](NC(=O)[C@H](C)NC(=O)CNC(=O)[C@H](Cc1c[nH]c2ccccc12)NC(=O)[C@@H](N)Cc1ccccc1)C(=O)N[C@@H](Cc1ccccc1)C(=O)N[C@@H](CCCCN)C(=O)N[C@H](C(=O)N[C@@H](C)C(=O)N[C@@H](CO)C(=O)N[C@@H](CCCCN)C(=O)O)C(C)C` [FWGALFKVASK], for which the MIC in experiment [12] is at least 160 µM; in [13], at least 160 µM; in experiment [14], above 160 µM; in experiment [15], at least 160 µM; in [16] it was at least 39.9 µM; in [17], at least 79.8 µM. The MIC is 19.9 µM (≈ 25 µg/mL) in [10], 79.8 µM (≈ 100 µg/mL) in experiment [18], at least 79.8 µM in [19] and 79.8 µM (≈ 100 µg/mL) in experiment [11].

`CC(C)C[C@H](NC(=O)[C@H](C)NC(=O)CNC(=O)[C@H](CC(C)C)NC(=O)[C@@H](N)Cc1c[nH]c2ccccc12)C(=O)N[C@@H](Cc1ccccc1)C(=O)N[C@@H](CCCCN)C(=O)N[C@H](C(=O)N[C@@H](C)C(=O)N[C@@H](CO)C(=O)N[C@@H](CCCCN)C(=O)O)C(C)C` [WLGALFKVASK]: the MIC in experiment [12] is at least 164 µM; in experiment [13] it was at least 164 µM; in [14], above 164 µM; in [15], at least 164 µM; in experiment [16], at least 82 µM; in experiment [17], at least 82 µM. Further, the MIC in [10] was 82 µM (≈ 100 µg/mL); in experiment [18] it was 164 µM (≈ 200 µg/mL); in experiment [19], at least 164 µM; in [11], above 164 µM.

For the compound `CC[C@H](C)[C@H](NC(=O)[C@H](CCCCN)NC(=O)[C@@H]1CCCN1C(=O)[C@H](Cc1ccccc1)NC(=O)[C@@H](NC(=O)[C@H](CO)NC(=O)CNC(=O)[C@H](CC(C)C)NC(=O)[C@H](C)NC(=O)[C@H](CCCCN)NC(=O)[C@H](CC(C)C)NC(=O)[C@H](C)NC(=O)[C@@H](NC(=O)[C@@H]1CCCN1C(=O)[C@H](CC(C)C)NC(=O)[C@@H](N)Cc1ccccc1)[C@@H](C)CC)[C@@H](C)CC)C(=O)N[C@@H](CC(C)C)C(N)=O` [FLPIALKALGSIFPKIL], the MIC in [20] came to 27.2 µM (≈ 50 µg/mL); in experiment [21] it was 6.79 µM (≈ 12.5 µg/mL).

On to `CC[C@H](C)[C@H](NC(=O)[C@H](CCCCN)NC(=O)[C@H](CCCCN)NC(=O)[C@H](C)NC(=O)[C@@H](NC(=O)[C@H](C)NC(=O)[C@H](CC(C)C)NC(=O)[C@H](CC(C)C)NC(=O)[C@H](CCCCN)NC(=O)[C@H](CCCCN)NC(=O)[C@H](CC(C)C)NC(=O)[C@H](CC(N)=O)NC(=O)[C@@H](N)CC(C)C)C(C)C)C(N)=O` [LNLKKLLAVAKKI], for which the MIC amounted to 16 µM (≈ 23.2 µg/mL) in [22]; 16 µM (≈ 23.2 µg/mL) in experiment [3]; 128 µM (≈ 186 µg/mL) in experiment [4]; 8 µM (≈ 11.6 µg/mL) in experiment [6]; 64 µM (≈ 92.9 µg/mL) in experiment [8].

For `C[C@@H](O)[C@H](NC(=O)[C@H](CCCCN)NC(=O)[C@H](Cc1c[nH]c2ccccc12)NC(=O)[C@H](CCCN=C(N)N)NC(=O)[C@H](CCCCN)NC(=O)[C@H](Cc1c[nH]c2ccccc12)NC(=O)[C@H](Cc1c[nH]c2ccccc12)NC(=O)CN)C(=O)N[C@@H](Cc1c[nH]c2ccccc12)C(=O)N[C@@H](Cc1c[nH]c2ccccc12)C(N)=O` [GWWKRWKTWW], the MIC in experiment [1] is 16 µM (≈ 24.3 µg/mL); in experiment [2], 16 µM (≈ 24.3 µg/mL); in experiment [3] it was 16 µM (≈ 24.3 µg/mL); in experiment [4] it was 8 µM (≈ 12.2 µg/mL); in experiment [5] it was 8 µM (≈ 12.2 µg/mL); in experiment [6], 4 µM (≈ 6.08 µg/mL). The results for the MIC in experiment [7] and in [8] were 4 µM (≈ 6.08 µg/mL) and 16 µM (≈ 24.3 µg/mL), respectively.

In the case of `CC[C@H](C)[C@H](NC(=O)CNC(=O)[C@H](CCCN=C(N)N)NC(=O)[C@H](CCCCN)NC(=O)[C@@H](NC(=O)CNC(=O)[C@H](CCCN=C(N)N)NC(=O)[C@H](CCCCN)NC(=O)[C@@H](NC(=O)CN)[C@@H](C)CC)[C@@H](C)CC)C(=O)N[C@@H](CCCCN)C(=O)N[C@@H](CCCN=C(N)N)C(N)=O` [GIKRGIKRGIKR], the MIC was above 128 µM in [3] and at least 128 µM in experiment [6].

For the compound `CC(C)C[C@H](NC(=O)[C@H](C)NC(=O)CNC(=O)[C@H](CC(C)C)NC(=O)[C@@H](N)Cc1ccccc1)C(=O)N[C@@H](Cc1ccccc1)C(=O)N[C@@H](Cc1c[nH]c2ccccc12)C(=O)N[C@H](C(=O)N[C@@H](C)C(=O)N[C@@H](CO)C(=O)N[C@@H](CCCCN)C(=O)O)C(C)C` [FLGALFWVASK], the MIC was at least 161 µM in [12]; at least 161 µM in experiment [13]; above 161 µM in experiment [14]; at least 161 µM in experiment [15]; at least 161 µM in [16]; at least 161 µM in [17]. The minimal inhibitory concentration (MIC) was above 161 µM in experiment [10], above 161 µM in experiment [18], at least 161 µM in experiment [19] and above 161 µM in [11].

Regarding `CC(C)C[C@H](NC(=O)[C@@H](NC(=O)[C@H](CCCCN)NC(=O)[C@H](CO)NC(=O)[C@H](C)NC(=O)[C@@H](NC(=O)[C@H](CCCCN)NC(=O)[C@H](Cc1ccccc1)NC(=O)[C@H](CC(C)C)NC(=O)[C@H](C)NC(=O)CNC(=O)[C@H](CC(C)C)NC(=O)[C@H](C)N)C(C)C)C(C)C)C(=O)O` [ALGALFKVASKVL], the MIC in experiment [12] was at least 152 µM; in [13], at least 152 µM; in experiment [14], 152 µM (≈ 200 µg/mL); in experiment [15], at least 152 µM; in experiment [16], 19 µM (≈ 25 µg/mL); in [17], at least 152 µM. For the same compound, the MIC in [10] is 9.49 µM (≈ 12.5 µg/mL); in [18], 38 µM (≈ 50 µg/mL); in [19], at least 38 µM; in experiment [11], 76 µM (≈ 100 µg/mL).

Consider `CC[C@H](C)[C@H](NC(=O)[C@H](CC(C)C)NC(=O)[C@H](CCC(N)=O)NC(=O)[C@@H](NC(=O)[C@H](CC(C)C)NC(=O)[C@H](CCCN=C(N)N)NC(=O)[C@H](CCCN=C(N)N)NC(=O)[C@@H](NC(=O)[C@H](C)NC(=O)[C@H](CCCCN)NC(=O)[C@H](CCCN=C(N)N)NC(=O)[C@H](CC(C)C)NC(=O)[C@@H](NC(=O)[C@H](C)NC(=O)[C@@H](NC(=O)[C@H](C)N)[C@@H](C)O)[C@@H](C)CC)[C@@H](C)O)C(C)C)C(=O)O` [ATAILRKATRRLVQLI], for which the MIC was 25 µM (≈ 45.6 µg/mL) in experiment [23]; above 25 µM in experiment [22]; above 25 µM in experiment [3]; above 25 µM in experiment [4]; above 25 µM in [8].

On to `CC(C)C[C@H](NC(=O)[C@@H](N)Cc1ccccc1)C(=O)NCC(=O)N[C@@H](C)C(=O)N[C@@H](Cc1c[nH]c2ccccc12)C(=O)N[C@@H](Cc1ccccc1)C(=O)N[C@@H](CCCCN)C(=O)N[C@H](C(=O)N[C@@H](C)C(=O)N[C@@H](CO)C(=O)N[C@@H](CCCCN)C(=O)O)C(C)C` [FLGAWFKVASK], for which the MIC in experiment [12] is at least 160 µM; in [13] it was at least 160 µM; in experiment [14], above 160 µM; in experiment [15] it was at least 160 µM; in [16], at least 160 µM; in experiment [17] it was at least 160 µM. Besides, the MIC in [10] is above 160 µM; in experiment [18], above 160 µM; in experiment [19], at least 160 µM; in experiment [11], above 160 µM.
